Data published in PubChem BioAssay (NCI).
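How tested: cells in 96-well plates exposed to compound for 48 hours at five concentrations. TGI: total growth inhibition.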

Tests used:
Experiment in all cases: DTP human tumour cell line panel, 48 h
BT-549 breast = system: BT-549 breast
SNB-19 CNS = system: SNB-19 CNS
SW-620 colon = system: SW-620 colon
SN12C renal = system: SN12C renal
OVCAR-3 ovarian = system: OVCAR-3 ovarian
SK-MEL-2 melanoma = system: SK-MEL-2 melanoma
LOX IMVI melanoma = system: LOX IMVI melanoma
HT29 colon = system: HT29 colon
T-47D breast = system: T-47D breast
SF-295 CNS = system: SF-295 CNS
TK-10 renal = system: TK-10 renal
OVCAR-8 ovarian = system: OVCAR-8 ovarian
SF-539 CNS = system: SF-539 CNS
SNB-75 CNS = system: SNB-75 CNS
A498 renal = system: A498 renal
SK-OV-3 ovarian = system: SK-OV-3 ovarian
IGROV1 ovarian = system: IGROV1 ovarian
UO-31 renal = system: UO-31 renal
NCI-H522 lung = system: NCI-H522 lung
HCT-15 colon = system: HCT-15 colon
CAKI-1 renal = system: CAKI-1 renal
CCRF-CEM leukemia = system: CCRF-CEM leukemia
SK-MEL-5 melanoma = system: SK-MEL-5 melanoma
PC-3 prostate = system: PC-3 prostate
MDA-MB-435 = system: MDA-MB-435
MDA-N = system: MDA-N
HOP-92 NSCLC = system: HOP-92 NSCLC
ACHN renal = system: ACHN renal
EKVX NSCLC = system: EKVX NSCLC
HCT-116 colon = system: HCT-116 colon
A549 NSCLC = system: A549 NSCLC
NCI/ADR-RES ovarian = system: NCI/ADR-RES ovarian
COLO 205 colon = system: COLO 205 colon
SF-268 CNS = system: SF-268 CNS
OVCAR-5 ovarian = system: OVCAR-5 ovarian
SR leukemia = system: SR leukemia
NCI-H460 lung = system: NCI-H460 lung
HCC-2998 colon = system: HCC-2998 colon
MDA-MB-231 breast = system: MDA-MB-231 breast
MALME-3M melanoma = system: MALME-3M melanoma
SK-MEL-28 melanoma = system: SK-MEL-28 melanoma
DU-145 prostate = system: DU-145 prostate
MCF7 breast = system: MCF7 breast
KM12 colon = system: KM12 colon
HL-60(TB) leukemia = system: HL-60(TB) leukemia
HOP-62 NSCLC = system: HOP-62 NSCLC
NCI-H23 lung = system: NCI-H23 lung
RXF 393 renal = system: RXF 393 renal
786-0 renal = system: 786-0 renal
NCI-H226 lung = system: NCI-H226 lung
HS 578T breast = system: HS 578T breast
UACC-62 melanoma = system: UACC-62 melanoma
OVCAR-4 ovarian = system: OVCAR-4 ovarian
UACC-257 melanoma = system: UACC-257 melanoma
MOLT-4 leukemia = system: MOLT-4 leukemia
U251 CNS = system: U251 CNS
K-562 leukemia = system: K-562 leukemia
RPMI-8226 leukemia = system: RPMI-8226 leukemia
M14 melanoma = system: M14 melanoma

CN(C)CC1CCC/C(=C\c2ccccc2)C1=O (stereo not given)
TGI (BT-549 breast): 23.1 µM
TGI (SNB-19 CNS): 30.5 µM
TGI (SW-620 colon): 3.07 µM
TGI (SN12C renal): 18.5 µM
TGI (OVCAR-3 ovarian): 3.75 µM
TGI (SK-MEL-2 melanoma): 18.9 µM
TGI (LOX IMVI melanoma): 3.2 µM
TGI (HT29 colon): 3.18 µM
TGI (T-47D breast): 4.35 µM
TGI (SF-295 CNS): 35.2 µM
TGI (TK-10 renal): 7.85 µM
TGI (OVCAR-8 ovarian): 14.7 µM
TGI (SF-539 CNS): 14.3 µM
TGI (SNB-75 CNS): 26.7 µM
TGI (A498 renal): 31.2 µM
TGI (SK-OV-3 ovarian): 34 µM
TGI (IGROV1 ovarian): 13.9 µM
TGI (UO-31 renal): 5.08 µM
TGI (NCI-H522 lung): 2.95 µM
TGI (HCT-15 colon): 4.67 µM
TGI (CAKI-1 renal): 3.2 µM
TGI (CCRF-CEM leukemia): > 100 µM
TGI (SK-MEL-5 melanoma): 21.4 µM
TGI (PC-3 prostate): 21 µM
TGI (MDA-MB-435): 3.54 µM
TGI (MDA-N): 8.93 µM
TGI (HOP-92 NSCLC): 8.26 µM
TGI (ACHN renal): 12.6 µM
TGI (EKVX NSCLC): 33.7 µM
TGI (HCT-116 colon): 2.91 µM
TGI (A549 NSCLC): 38.2 µM
TGI (NCI/ADR-RES ovarian): 41.6 µM
TGI (COLO 205 colon): 5.27 µM
TGI (SF-268 CNS): 7.44 µM
TGI (OVCAR-5 ovarian): 29 µM
TGI (SR leukemia): > 100 µM
TGI (NCI-H460 lung): 16.9 µM
TGI (HCC-2998 colon): 29 µM
TGI (MDA-MB-231 breast): 4.18 µM
TGI (MALME-3M melanoma): 3.46 µM
TGI (SK-MEL-28 melanoma): 6.04 µM
TGI (DU-145 prostate): 28.6 µM
TGI (MCF7 breast): 2.18 µM
TGI (KM12 colon): 2.59 µM
TGI (HL-60(TB) leukemia): > 100 µM
TGI (HOP-62 NSCLC): 34.2 µM
TGI (NCI-H23 lung): 22.8 µM
TGI (RXF 393 renal): 7.38 µM
TGI (786-0 renal): 6.9 µM
TGI (NCI-H226 lung): 8.26 µM
TGI (HS 578T breast): 9.87 µM
TGI (UACC-62 melanoma): 20.2 µM
TGI (OVCAR-4 ovarian): 3.17 µM
TGI (UACC-257 melanoma): 7.45 µM
TGI (MOLT-4 leukemia): > 100 µM
TGI (U251 CNS): 28.7 µM

CC(C)Cn1cnc2c(Cl)nc3ccccc3c21
TGI (BT-549 breast): > 100 µM
TGI (SNB-19 CNS): > 100 µM
TGI (SW-620 colon): > 100 µM
TGI (SN12C renal): > 100 µM
TGI (OVCAR-3 ovarian): > 100 µM
TGI (SK-MEL-2 melanoma): > 100 µM
TGI (LOX IMVI melanoma): > 100 µM
TGI (HT29 colon): > 100 µM
TGI (T-47D breast): > 100 µM
TGI (SF-295 CNS): > 100 µM
TGI (TK-10 renal): > 100 µM
TGI (OVCAR-8 ovarian): > 100 µM
TGI (SF-539 CNS): > 100 µM
TGI (SNB-75 CNS): 88 µM
TGI (A498 renal): > 100 µM
TGI (SK-OV-3 ovarian): > 100 µM
TGI (IGROV1 ovarian): > 100 µM
TGI (UO-31 renal): > 100 µM
TGI (NCI-H522 lung): > 100 µM
TGI (HCT-15 colon): > 100 µM
TGI (CAKI-1 renal): > 100 µM
TGI (CCRF-CEM leukemia): > 100 µM
TGI (SK-MEL-5 melanoma): 42.2 µM
TGI (PC-3 prostate): > 100 µM
TGI (MDA-MB-435): > 100 µM
TGI (MDA-N): > 100 µM
TGI (HOP-92 NSCLC): > 100 µM
TGI (ACHN renal): > 100 µM
TGI (EKVX NSCLC): > 100 µM
TGI (HCT-116 colon): > 100 µM
TGI (A549 NSCLC): > 100 µM
TGI (NCI/ADR-RES ovarian): > 100 µM
TGI (COLO 205 colon): > 100 µM
TGI (SF-268 CNS): > 100 µM
TGI (OVCAR-5 ovarian): > 100 µM
TGI (SR leukemia): 66.6 µM
TGI (NCI-H460 lung): > 100 µM
TGI (HCC-2998 colon): > 100 µM
TGI (K-562 leukemia): > 100 µM
TGI (MDA-MB-231 breast): > 100 µM
TGI (MALME-3M melanoma): > 100 µM
TGI (RPMI-8226 leukemia): > 100 µM
TGI (SK-MEL-28 melanoma): > 100 µM
TGI (DU-145 prostate): > 100 µM
TGI (MCF7 breast): > 100 µM
TGI (M14 melanoma): > 100 µM
TGI (KM12 colon): > 100 µM
TGI (HL-60(TB) leukemia): 62.9 µM
TGI (HOP-62 NSCLC): > 100 µM
TGI (NCI-H23 lung): > 100 µM
TGI (RXF 393 renal): > 100 µM
TGI (786-0 renal): > 100 µM
TGI (NCI-H226 lung): > 100 µM
TGI (HS 578T breast): > 100 µM
TGI (UACC-62 melanoma): > 100 µM
TGI (OVCAR-4 ovarian): > 100 µM
TGI (UACC-257 melanoma): > 100 µM
TGI (MOLT-4 leukemia): > 100 µM
TGI (U251 CNS): > 100 µM
